Tests used:
Type in all cases: physicochemical
[1] = Miscibility evaluation: blue light blocking compound dissolved in HEMA and in a silicone hydrogel contact lens composition; details: the higher the value, the greater the miscibility; for miscibility in silicone hydrogel contact lens composition: composition with hydrophilic monomer, first siloxane monomer and second siloxane monomer; for miscibility in HEMA: dissolved in 2-hydroxyethyl methacrylate (HEMA)
Method: The blue light blocking compounds of Examples 1 to 3 and Comparative Example 1 are dissolved in 2-hydroxyethyl methacrylate (represented by HEMA in the table, which is also the hydrophilic monomer used to manufacture the ophthalmic device) and a silicone hydrogel contact lens composition for observing the miscibility, and the results are shown in the following TABLE 1. The higher the value in the TABLE 1, the greater the miscibility. The silicone hydrogel contact lens composition used in the miscibility evaluation includes a polymerizable monomer, and the polymerizable monomer includes a hydrophilic monomer, a first siloxane monomer and a second siloxane monomer.

[2] = as above
[3] = Blue light absorbance evaluation of ophthalmic devices (absorption spectrum, UV-VIS spectrophotometer SHIMADZU UV-2600); details: 380 nm to 460 nm
Description: The above components can be mixed in a specific ratio to form the blue light blocking composition for manufacturing an ophthalmic device. In an embodiment, the blue light blocking composition of the present disclosure may be put into a contact lens mold, and components in the blue light blocking composition undergo a curing reaction (thermal curing reaction or photo curing reaction) through heating or irradiating light to form an ophthalmic device. The heating temperature may be between about 30° C. and about 150° C., and the heating time may be between about 1 hour and 12 hours. In an embodiment, the reaction conditions can be heating at 30-70° C. for 0-2 hours, heating at 70-100° C. for 2-4 hours, and heating at 100-150° C. for 4-12 hours. In an embodiment, a hydration process and/or a sterilization process can be performed after the curing reaction. […]
The ophthalmic devices of Examples 4 to 9 and Comparative Examples 2 and 3 are subjected to a blue light absorbance evaluation. The blue light absorbance is measured by absorption spectrum with UV-VIS spectrophotometer (SHIMADZU UV-2600). The blue light absorbance represents the amount of blue light with a wavelength between 380 nm and 460 nm that are absorbed by silicone hydrogel contact lens.

Row | Structure (SMILES) | miscibility in silicone hydrogel contact lens composition [1] [%] | miscibility in HEMA [1] [%] | miscibility with the silicone hydrogel contact lens compositions (observation) ([2]; addition amount 1.0%) | usable addition amount in silicone hydrogel contact lens composition ([2]; concluded from TABLE 2) | blue light absorbance ([3]; ophthalmic device from silicone hydrogel contact lens composition with 1.5% of the compound) [%] | blue light absorbance ([3]; ophthalmic device from silicone hydrogel contact lens composition with 2% of the compound) [%]
1 | C=CS(=O)(=O)c1cc(OC)c(/N=N/C2C(=O)N(c3ccc(S(=O)(=O)[O-])cc3)N=C2C)cc1C.[Na+] (stereo not drawn) [Comparative Example 1, reference compound] | 0.1 | 5 | precipitation occurs | less than 1.0% | – | –
2 | C=C(C)C(=O)OCCOC(=O)/C(=C/c1ccc(N(C)C)cc1)C(=O)OC [Example 1] | 4.0 | 25 | – | – | 56.1 | 65.3
3 | C=C(C)C(=O)OCCOC(=O)C(=Cc1ccc(N(C)C)cc1)C(=O)OCCOC(=O)C(=C)C [Example 2] | 4.6 | 67 | – | – | – | –
4 | C=C(C)C(=O)OCCNC(=O)/C(=C/c1ccc(N(C)C)cc1)C(=O)OC [Example 3] | 1.5 | 47 | – | – | – | –

Source: US20250382439A1, “BLUE LIGHT BLOCKING COMPOUND, BLUE LIGHT BLOCKING COMPOSITION, USE OF BLUE LIGHT BLOCKING COMPOUND, USE OF BLUE LIGHT BLOCKING COMPOSITION AND METHOD FOR PREPARING BLUE LIGHT BLOCKING COMPOUND” (Visco Vision Inc., priority 2024, published 2025)
